Test results as given in US20250263496A1, “Neutrophil-Activating Therapy for the Treatment of Cancer” (The Board of Trustees of the Leland Stanford Junior …, priority 2024, published 2025).

Assays:
B16 cells = experiment: Mouse in vitro cytotoxicity (EuTDA), B16 cells co-cultured with neutrophils; type: cell-based; conditions: neutrophils from treated tumors stimulated with neutrophil-activating therapy
Description: B16 tumors were treated by intratumoral injection of TNF+anti-CD40+anti-gp75 and harvested 12 hours post-treatment. Tumors were dissected away from any surrounding fat, minced, and digested in 5 mg/ml collagenase IV (Worthington) plus 0.1 mg/ml DNase I (Sigma) with continuous mixing by magnetic stir bars for 20 minutes at 37° C. in RPMI-1640 (Gibco) with 2% FBS. Following digestion, tissue was mashed through a […] cell strainer (Falcon) and washed. For some studies, bone marrow was harvested by grinding bones from tumor-naive untreated mice in a mortar and pestle and mashing through a […] strainer (Falcon). Neutrophils were isolated from tumor and bone marrow samples with the MojoSort Mouse Ly6G Selection Kit (BioLegend), according to the manufacturer's instructions, and used in the cytotoxicity assay.
Cytotoxicity assays were conducted using the EuTDA assay from the DELFIA TRF cytotoxicity kit (PerkinElmer) according to the manufacturer's instructions. Briefly, B16 cells were labeled for 10 minutes with BATDA, and 5×10^3 labeled cells were added per well to a 96 well V-bottom plate in RPMI-1640. Neutrophils were added at a ratio of 10:1 unless otherwise stated. All co-cultures were conducted in the presence of TNF (10 ng/ml), anti-CD40 (1 μg/ml), anti-gp75 (1 μg/ml), and 10% active mouse C57BL/6 complement serum (Innovative Research), except where indicated otherwise. Mouse C57BL/6 complement serum was heat-inactivated for 40 minutes at 57° C. where inactivation is specified. In some experiments, mouse IgG2a isotype control (1 μg/ml, isotype control for anti-gp75, clone C1.18.4, Bio X Cell), anti-mouse CD16/CD32 (10 μg/ml, clone 2.4G2, Bio X Cell), recombinant mouse C5a (50 nM, R&D Systems), anti-C5a (25 μg/ml, clone 295108, R&D Systems), rat IgG2a isotype control (25 μg/ml, isotype control for anti-C5a, clone 2A3, Bio X Cell), anti-C5AR1 (5 μg/ml, clone 20/70, BioLegend), rat IgG2b isotype control (5 μg/ml, isotype control for anti-C5AR1, clone LTF-2, Bio X Cell), SC57461A (10 μM, Cayman Chemical), CP-105696 (1 μM, Sigma), topiroxostat (10 μM, MedChem Express), or DMSO (vehicle for SC57461A, CP-105696, and topiroxostat) were added to the wells with the B16 and neutrophils. After 4 hours of co-culture at 37° C., supernatant was taken from the wells, Europium solution was added, and TDA released from lysed B16 cells was detected by […] on a Victor X4 fluorescence microplate reader (PerkinElmer). Percent maximal lysis was determined by calculating the specific release of TDA using the formula: (experimental release−spontaneous release)/(maximum release −spontaneous release), where spontaneous release was determined by wells containing no neutrophils and maximum release was determined by wells with lysis buffer added.
For trogocytosis studies investigating transfer of tumor-binding antibody, anti-gp75 labeled with AF647 (clone TA99, Novus Biologicals) was used in place of unlabeled anti-gp75. For studies investigating transfer of B16 cell membrane, DiD′ Solid (ThermoFisher Scientific) was reconstituted in DMSO at 10 mg/ml and diluted to a working solution of 5 μg/ml in serum-free DMEM. B16 cells were labeled in this solution for 20 minutes at 37° C. at 1×10^6 cells/ml. Labeled B16 was washed 3 times in warm media before being added to the co-culture wells with the neutrophils. Following co-culture, flow cytometry was used to identify DiD signal in neutrophils.

B16 tumors = experiment: Oxidative damage in B16 tumors (DNA/RNA oxidation, oxidized glutathione); type: in vivo, mouse; conditions: agent given prior to neutrophil-activating therapy
Description: Tumors were dissected away from surrounding fat, fixed in 2% paraformaldehyde for 2 hours at 4° C., equilibrated in a 30% sucrose solution at 4° C., and embedded and frozen in O.C.T. Compound (Tissue-Tek). Slides were cut to […] and blocked with 1% BSA and 10% serum matched to the secondary antibody species. […] All parameters that were quantified were acquired with identical microscope settings and adjusted identically in Photoshop, and all adjustments were applied equally across the entire tumor. Quantification was performed in ImageJ, using the wand tool on the overlaid multichannel image to draw a border around the tumor and then measuring the percent area within that border with signal for the channel of the marker quantified.
Determination of oxidized glutathione content. […] The percentage of oxidized glutathione was calculated from the reduced glutathione and total glutathione values determined by the kit.

**Q.** What does the source list for `N#Cc1cc(-c2n[nH]c(-c3ccncc3)n2)ccn1` [topiroxostat]?
**A.** effect of agent on ex vivo killing of tumor cells by neutrophils (B16 cells): inhibited ex vivo tumor cell killing; effect of agent on oxidation in tumors (B16 tumors): prevented oxidation in tumors
